Measured values as given in patent publication US10584115B2, “Substituted pyridine and pyrazine BMI-1 inhibitors” (PTC Therapeutics, Inc., priority 2013, dated 2020).
Like-named read-outs stand apart in the source and are kept apart here.

Tested on: Bmi-1 protein
Experiment: Sandwich ELISA Assay (Bmi-1 protein level in HT-1080 cells after compound treatment)
Format: cell-based
Method in brief: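 HT-1080 cells exposed to compounds for 40–48 h at 37 °C (0.5% DMSO final), then lysed. Bmi-1 in lysates measured by sandwich ELISA (mouse monoclonal capture, rabbit anti-Bmi-1 detection, HRP anti-rabbit, TMB), read at OD450 with OD570 reference against a recombinant Bmi-1 standard curve (0–8000 pg/mL).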

[1] = Table 1, Bmi-1 sandwich ELISA, read-out: ELISA EC50 value for Bmi-1 protein
[2] = read-out: ELISA EC50 value for Bmi-1 protein, Table 1, Bmi-1 sandwich ELISA

**Q.** For `Cc1nc2cc(F)c(F)cc2n1-c1cncc(Nc2ccc(C(F)(F)F)c(F)c2)n1` [compound 295, 6-(5,6-difluoro-2-methyl-1H-benzimidazol-1-yl)-N-[3-fluoro-4-(trifluoromethyl)phenyl]pyrazin-2-amine], which EC50 [1] is on record?
**A.** 0.01 to 0.1 µM

**Q.** Which EC50 [1] does the source give for `O=[N+]([O-])c1ccc(Nc2cncc(-c3c(C(F)(F)F)nc4ccccn34)n2)cc1` [Cpd 59, N-(4-nitrophenyl)-6-[2-(trifluoromethyl)imidazo[1,2-a]pyridin-3-yl]pyrazin-2-amine] here?
**A.** 0.1 to 3 µM

**Q.** Which EC50 [1] does the source give for `Cc1nc2ccccc2n1-c1cncc(Nc2ccc(C(C)N)cc2)n1` (stereo not shown) [compound 256, N-[4-(1-aminoethyl)phenyl]-6-(2-methyl-1H-benzimidazol-1-yl)pyrazin-2-amine] here?
**A.** 0.1 to 3 µM

**Q.** `Cc1nc2ccccc2n1-c1cncc(Nc2ccc(C(C)O)cc2)n1` (stereo not shown) [compound 155, 1-(4-{[6-(2-methyl-1H-benzimidazol-1-yl)pyrazin-2-yl]amino}phenyl)ethanol] was tested. Which EC50 [1] did it give?
**A.** 0.01 to 0.1 µM

**Q.** `CCc1nn2ccccc2c1-c1cncc(Nc2ccc(C(=O)OC)cc2)n1` [compound 642, methyl 4-{[6-(2-ethylpyrazolo[1,5-a]pyridin-3-yl)pyrazin-2-yl]amino}benzoate] was tested. Which EC50 [1] did it give?
**A.** 0.01 to 0.1 µM

**Q.** How did the EC50 [1] turn out when `O=[N+]([O-])c1cc(Nc2ccc(OC(F)(F)F)cc2)nc(-c2c(C(F)(F)F)nc3ccccn23)c1` [compound 197, 4-nitro-N-[4-(trifluoromethoxy)phenyl]-6-[2-(trifluoromethyl)imidazo[1,2-a]pyridin-3-yl]pyridin-2-amine] was run?
**A.** 0.01 to 0.1 µM

**Q.** How did the EC50 [1] turn out when `N#Cc1nc2ccccc2n1-c1cncc(Nc2ccc(OC(F)F)cc2)n1` [compound 188, 1-(6-{[4-(difluoromethoxy)phenyl]amino}pyrazin-2-yl)-1H-benzimidazole-2-carbonitrile] was run?
**A.** 0.01 to 0.1 µM

**Q.** For `Fc1cc(Nc2cncc(-c3c(C(F)(F)F)nc4ccccn34)n2)ccc1Br` [Cpd 30, N-(4-bromo-3-fluorophenyl)-6-[2-(trifluoromethyl)imidazo[1,2-a]pyridin-3-yl]pyrazin-2-amine], which EC50 [1] is on record?
**A.** 0.001 to 0.01 µM

**Q.** For `Cc1nc2ccc(NCc3ccccc3)cc2n1-c1cncc(Nc2ccc(C(F)(F)F)cc2)n1` [compound 275, N-benzyl-2-methyl-1-(6-{[4-(trifluoromethyl)phenyl]amino}pyrazin-2-yl)-1H-benzimidazol-6-amine], which EC50 [1] is on record?
**A.** 0.01 to 0.1 µM

**Q.** With `COc1ccc(Nc2cccc(-n3c(C)nc4ccccc43)n2)cc1` [Cpd 32, N-(4-methoxyphenyl)-6-(2-methyl-1H-benzimidazol-1-yl)pyridin-2-amine] as the molecule, how does the EC50 [2] read?
**A.** 0.001 to 0.01 µM

**Q.** `CCc1nn2ccccc2c1-c1cc(C#N)cc(Nc2ccc(OC(F)(F)F)cc2)n1` [compound 529, 2-(2-ethylpyrazolo[1,5-a]pyridin-3-yl)-6-{[4-(trifluoromethoxy)phenyl]amino}pyridine-4-carbonitrile] was tested. Which EC50 [1] did it give?
**A.** 0.1 to 3 µM

**Q.** How did the EC50 [1] turn out when `Cc1nn2ccccc2c1-c1cncc(Nc2ccc(C#N)cc2)n1` [compound 571, 4-{[6-(2-methylpyrazolo[1,5-a]pyridin-3-yl)pyrazin-2-yl]amino}benzonitrile] was run?
**A.** 0.01 to 0.1 µM

**Q.** With `CCc1nc2ncc(Cl)cc2n1-c1cncc(Nc2ccc(C(F)(F)F)cc2)n1` [compound 543, 6-(6-chloro-2-ethyl-1H-imidazo[4,5-b]pyridin-1-yl)-N-[4-(trifluoromethyl)phenyl]pyrazin-2-amine] as the molecule, how does the EC50 [1] read?
**A.** 0.1 to 3 µM

**Q.** For `CSc1nc2ccccc2n1-c1cncc(Nc2ccc(OC(F)F)cc2)n1` [compound 181, N-[4-(difluoromethoxy)phenyl]-6-[2-(methylsulfanyl)-1H-benzimidazol-1-yl]pyrazin-2-amine], which EC50 [1] is on record?
**A.** 0.01 to 0.1 µM

**Q.** With `Cc1nc2ccccc2n1-c1cncc(Nc2ccc(Cl)cc2)n1` [compound 20, N-(4-chlorophenyl)-6-(2-methyl-1H-benzimidazol-1-yl)pyrazin-2-amine] as the molecule, how does the EC50 [1] read?
**A.** 0.01 to 0.1 µM

**Q.** With `CCNc1nc2ccccc2n1-c1cncc(Nc2ccc(C(F)(F)F)cc2)n1` [compound 138, N-ethyl-1-(6-{[4-(trifluoromethyl)phenyl]amino}pyrazin-2-yl)-1H-benzimidazol-2-amine] as the molecule, how does the EC50 [1] read?
**A.** 0.01 to 0.1 µM

**Q.** For `[O-][n+]1cc(Nc2ccc(C(F)(F)F)cc2)nc(-c2c(C(F)(F)F)nc3ccccn23)c1` [compound 534, 6-[2-(trifluoromethyl)imidazo[1,2-a]pyridin-3-yl]-N-[4-(trifluoromethyl)phenyl]pyrazin-2-amine 4-oxide], which EC50 [1] is on record?
**A.** 0.01 to 0.1 µM

**Q.** Which EC50 [1] does the source give for `C[C@H](O)c1nc2ccccc2n1-c1cncc(Nc2ccc(C(F)(F)F)cc2)n1` [compound 98, (1S)-1-[1-(6-{[4-(trifluoromethyl)phenyl]amino}pyrazin-2-yl)-1H-benzimidazol-2-yl]ethanol] here?
**A.** 0.01 to 0.1 µM

**Q.** Which EC50 [1] does the source give for `N#Cc1cc(Nc2ccc(OC(F)F)cc2)nc(-c2c(C(F)(F)F)nc3ccc(F)cn23)c1` [compound 273, 2-{[4-(difluoromethoxy)phenyl]amino}-6-[6-fluoro-2-(trifluoromethyl)imidazo[1,2-a]pyridin-3-yl]pyridine-4-carbonitrile] here?
**A.** 0.001 to 0.01 µM

**Q.** How did the EC50 [1] turn out when `COc1cccc(Nc2cncc(-n3c(C)nc4ccccc43)n2)c1` [compound 557, N-(3-methoxyphenyl)-6-(2-methyl-1H-benzimidazol-1-yl)pyrazin-2-amine] was run?
**A.** 0.1 to 3 µM

**Q.** For `[O-][n+]1cc(Nc2ccc(C(F)(F)F)cc2)nc(-n2c(C3CC3)nc3ncc(F)cc32)c1` [compound 533, 6-(2-cyclopropyl-6-fluoro-1H-imidazo[4,5-b]pyridin-1-yl)-N-[4-(trifluoromethyl)phenyl]pyrazin-2-amine 4-oxide], which EC50 [1] is on record?
**A.** 0.01 to 0.1 µM

**Q.** How did the EC50 [1] turn out when `COc1ccc2nc(C(F)(F)F)c(-c3cncc(Nc4ccc(OC(F)(F)F)cc4)n3)n2c1` [Cpd 45, 6-[6-methoxy-2-(trifluoromethyl)imidazo[1,2-a]pyridin-3-yl]-N-[4-(trifluoromethoxy)phenyl]pyrazin-2-amine] was run?
**A.** 0.01 to 0.1 µM

**Q.** Which EC50 [1] does the source give for `COc1cc(Nc2ccc(C(F)(F)F)cc2)nc(-c2c(C(=O)O)nc3ccccn23)c1` [Cpd 124, 3-(4-methoxy-6-{[4-(trifluoromethyl)phenyl]amino}pyridin-2-yl)imidazo[1,2-a]pyridine-2-carboxylic acid] here?
**A.** 0.01 to 0.1 µM

**Q.** For `COc1ccc2nc(C)c(-c3cc(C#N)cc(Nc4ccc(OC(F)(F)F)cc4)n3)n2c1` [compound 380, 2-(6-methoxy-2-methylimidazo[1,2-a]pyridin-3-yl)-6-{[4-(trifluoromethoxy)phenyl]amino}pyridine-4-carbonitrile], which EC50 [1] is on record?
**A.** 0.01 to 0.1 µM

**Q.** With `Cc1nc2ncc(Cl)cc2n1-c1cncc(Nc2ccc(OC(F)F)cc2)n1` [compound 540, 6-(6-chloro-2-methyl-1H-imidazo[4,5-b]pyridin-1-yl)-N-[4-(difluoromethoxy)phenyl]pyrazin-2-amine] as the molecule, how does the EC50 [1] read?
**A.** < 0.001 µM

**Q.** With `Cc1nc2cc(Cl)ccc2n1-c1cncc(Nc2ccc(OC(F)(F)F)cc2)n1` [compound 223, 6-(5-chloro-2-methyl-1H-benzimidazol-1-yl)-N-[4-(trifluoromethoxy)phenyl]pyrazin-2-amine] as the molecule, how does the EC50 [1] read?
**A.** 0.1 to 3 µM

**Q.** `CCc1nc2ncc(Cl)cc2n1-c1cncc(Nc2ccc(OC(F)(F)F)cc2)n1` [compound 548, 6-(6-chloro-2-ethyl-1H-imidazo[4,5-b]pyridin-1-yl)-N-[4-(trifluoromethoxy)phenyl]pyrazin-2-amine] was tested. Which EC50 [1] did it give?
**A.** 0.01 to 0.1 µM

**Q.** For `N#Cc1cc(Nc2ccc(OC(F)(F)F)cc2)nc(-c2c(C(F)(F)F)nc3ccccn23)c1` [compound 218, 2-{[4-(trifluoromethoxy)phenyl]amino}-6-[2-(trifluoromethyl)imidazo[1,2-a]pyridin-3-yl]pyridine-4-carbonitrile], which EC50 [1] is on record?
**A.** 0.01 to 0.1 µM

**Q.** With `Oc1ccc2nc(C(F)(F)F)c(-c3cccc(Nc4ccc(OC(F)(F)F)cc4)n3)n2c1` [compound 110, 3-(6-{[4-(trifluoromethoxy)phenyl]amino}pyridin-2-yl)-2-(trifluoromethyl)imidazo[1,2-a]pyridin-6-ol] as the molecule, how does the EC50 [1] read?
**A.** 0.1 to 3 µM

**Q.** Which EC50 [1] does the source give for `Cc1cc(Nc2cncc(-c3c(C(F)(F)F)nc4ccccn34)n2)on1` [compound 97, N-(3-methyl-1,2-oxazol-5-yl)-6-[2-(trifluoromethyl)imidazo[1,2-a]pyridin-3-yl]pyrazin-2-amine] here?
**A.** 0.1 to 3 µM

**Q.** Which EC50 [1] does the source give for `O=C(c1ccc(Nc2cncc(-c3c(C(F)(F)F)nc4ccccn34)n2)cc1)C(F)(F)F` [compound 212, 2,2,2-trifluoro-1-[4-({6-[2-(trifluoromethyl)imidazo[1,2-a]pyridin-3-yl]pyrazin-2-yl}amino)phenyl]ethanone] here?
**A.** 0.1 to 3 µM

**Q.** For `CCc1ccc2nc(C)n(-c3cncc(Nc4ccc(C(F)(F)F)cc4)n3)c2c1` [Cpd 392, 6-(6-ethyl-2-methyl-1H-benzimidazol-1-yl)-N-[4-(trifluoromethyl)phenyl]pyrazin-2-amine], which EC50 [1] is on record?
**A.** 0.1 to 3 µM

**Q.** `Cc1nc2cc(F)c(F)cc2n1-c1cc(C#N)cc(Nc2ccc(C(F)(F)F)cc2)n1` [compound 241, 2-(5,6-difluoro-2-methyl-1H-benzimidazol-1-yl)-6-{[4-(trifluoromethyl)phenyl]amino}pyridine-4-carbonitrile] was tested. Which EC50 [1] did it give?
**A.** 0.01 to 0.1 µM

**Q.** How did the EC50 [2] turn out when `Cc1nc2ccccc2n1-c1ccc(N)c(Nc2ccc(C(F)(F)F)cc2)n1` [compound 465, 6-(2-methyl-1H-benzimidazol-1-yl)-N^2-[4-(trifluoromethyl)phenyl]pyridine-2,3-diamine] was run?
**A.** 0.1 to 3 µM

**Q.** For `OCc1nc2ccccc2n1-c1cncc(Nc2ccc(C(F)(F)F)cc2)n1` [compound 66, [1-(6-{[4-(trifluoromethyl)phenyl]amino}pyrazin-2-yl)-1H-benzimidazol-2-yl]methanol], which EC50 [1] is on record?
**A.** 0.1 to 3 µM

**Q.** With `CCc1nc2ncc(Nc3ccc(OC(F)F)cc3)cc2n1-c1cncc(Nc2ccc(OC(F)F)cc2)n1` [compound 545, N-[4-(difluoromethoxy)phenyl]-1-(6-{[4-(difluoromethoxy)phenyl]amino}pyrazin-2-yl)-2-ethyl-1H-imidazo[4,5-b]pyridin-6-amine] as the molecule, how does the EC50 [1] read?
**A.** 0.1 to 3 µM

**Q.** `N#Cc1cc(Nc2ccc(C(F)(F)F)cc2)nc(-c2c(CO)nc3ccc(F)cn23)c1` [compound 383, 2-[6-fluoro-2-(hydroxymethyl)imidazo[1,2-a]pyridin-3-yl]-6-{[4-(trifluoromethyl)phenyl]amino}pyridine-4-carbonitrile] was tested. Which EC50 [1] did it give?
**A.** 0.01 to 0.1 µM
